Patent US9447095B2, “Pyrimidine derivatives as phosphodiesterase 10 inhibitors (PDE-10)” (PALOBIOFARMA S.L., priority 2013, dated 2016)

Molecular target: Phosphodiesterase 10A (PDE10A) (Homo sapiens (Human), UniProt Q9Y233)
Experiment: Phosphodiesterase 10A (PDE10A) activity inhibition test ([3H]cAMP scintillation proximity assay)
Format: biochemical
Details: dose-response, 1:10 dilutions from 100 μM to 1 nM; [3H]cAMP SPA, 20 minutes at 30° C.; read-out: IC50 PDE10
Method: The “analysis of the activity of the enzyme Phosphodiesterase [^3H] cAMP SPA” (Perkin Elmer #7090 TRKQ) kit was used for the study of Phosphodiesterase 10. The kit contains: • Yttrium scintillation proximity assay (SPA) in beads: yttrium silicate in microspheres resuspended pellet in MiliQ water containing 18 mM zinc sulfate. • 10×PDE assay buffer: 500 mM Tris/HCl; 83 mM MgCl2; 17 mM EGTA; pH 7.5. • Tracer [^3H] cAMP: substrate for enzymatic reaction.
The test is based on the preferential binding of linear nucleotides to the SPA beads in the presence of zinc sulfate, with respect to the binding of cyclic nucleotides, which is almost imperceptible.
The binding of the radioactively labeled product to the beads brings the isotope to a proximity enough to allow the radioactive tritium radiation to excite the flashing part in the bead. Any independent radiolabel is not sufficiently close to the flashing part to allow the transfer of energy, so that no signal is generated. In addition, as the cyclic substrate is not effectively linked with the bead, the generated background signal is very low.
The binding of the linear nucleotides with the bead is based on a complex chelation mechanism. Zinc sulfate in the microsphere solution improves the binding between the bead and […].
Phosphodiesterase 10A (PDE10A) Activity Inhibition Test
The test is performed in 96-well Flexiplates (Perkin Elmer #1450-401) with duplicates for each sample. Positive and negative controls are also required in each analyzed plate to evaluate the activity of the enzyme.
The inhibition values for each of the compounds are measured in duplicate at a concentration of 10 μM and the plate is incubated for 20 minutes at 30° C. and then 50 μL of the kit beads are then added “Phosphodiesterase SPA beads” (Perkin-Elmer #RPNQ0150).
The plate is stirred for 1 hour at room temperature. Then beads are allowed to stand for one hour before reading the activity in a beta scintillation counter.
To build a dose-response curve, in order to calculate the potency of inhibition (expressed as IC50) for PDE10A, a series of 1:10 dilutions in test in 1× buffer from 100 μM to 1 nM for each compound were carried out.

Sequence of Phosphodiesterase 10A (PDE10A) (Q9Y233 whole entry, species assumed): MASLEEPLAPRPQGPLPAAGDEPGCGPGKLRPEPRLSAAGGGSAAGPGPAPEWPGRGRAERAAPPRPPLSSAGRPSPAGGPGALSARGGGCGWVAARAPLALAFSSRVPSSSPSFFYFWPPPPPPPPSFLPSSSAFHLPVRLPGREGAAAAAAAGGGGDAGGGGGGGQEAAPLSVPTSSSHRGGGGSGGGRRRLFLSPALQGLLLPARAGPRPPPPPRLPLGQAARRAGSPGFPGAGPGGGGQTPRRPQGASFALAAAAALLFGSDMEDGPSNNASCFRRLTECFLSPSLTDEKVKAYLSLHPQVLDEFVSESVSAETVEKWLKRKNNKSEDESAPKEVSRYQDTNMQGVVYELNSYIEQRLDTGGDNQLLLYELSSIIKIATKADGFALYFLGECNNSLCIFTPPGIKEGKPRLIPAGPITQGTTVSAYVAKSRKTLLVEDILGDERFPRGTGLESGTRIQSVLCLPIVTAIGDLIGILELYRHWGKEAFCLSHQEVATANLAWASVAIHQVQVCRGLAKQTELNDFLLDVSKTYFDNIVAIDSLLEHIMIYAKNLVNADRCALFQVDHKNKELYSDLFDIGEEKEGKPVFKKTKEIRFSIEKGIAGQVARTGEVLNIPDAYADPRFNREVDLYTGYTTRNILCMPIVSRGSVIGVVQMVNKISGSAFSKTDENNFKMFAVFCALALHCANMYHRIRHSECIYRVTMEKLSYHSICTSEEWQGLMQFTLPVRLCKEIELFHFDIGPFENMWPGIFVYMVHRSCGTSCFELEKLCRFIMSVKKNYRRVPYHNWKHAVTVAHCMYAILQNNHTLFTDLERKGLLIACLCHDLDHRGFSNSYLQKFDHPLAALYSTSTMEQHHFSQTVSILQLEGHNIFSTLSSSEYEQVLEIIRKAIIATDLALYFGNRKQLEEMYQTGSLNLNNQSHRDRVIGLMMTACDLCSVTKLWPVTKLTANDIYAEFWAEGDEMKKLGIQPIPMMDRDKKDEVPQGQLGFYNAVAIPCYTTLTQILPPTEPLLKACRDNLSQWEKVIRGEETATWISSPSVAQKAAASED

Nc1nc(-n2ncc3ccccc32)nc(NCC2CC2)c1Br [Example 1, 5-bromo-N^4-(cyclopropylmethyl)-2-(1H-indazol-1-yl)pyrimidine-4,6-diamine]
IC50: 52.5 nM

CCNc1nc(-n2ncc3ccccc32)nc(N)c1Br [Example 2, 5-bromo-N^4-ethyl-2-(1H-indazol-1-yl)pyrimidine-4,6-diamine]
IC50: 21.9 nM

C#CCNc1nc(-n2ncc3ccccc32)nc(N)c1Br [Example 3, 5-bromo-2-(1H-indazol-1-yl)-N^4-(prop-2-ynyl)pyrimidine-4,6-diamine]
IC50: 40.9 nM

Cc1nc(CNc2nc(-n3ncc4ccccc43)nc(N)c2Br)cs1 [Example 6, 5-bromo-2-(1H-indazol-1-yl)-N^4-[(2-methylthiazol-4-yl)methyl]pyrimidine-4,6-diamine]
IC50: 18.8 nM

Nc1nc(-n2ncc3ccccc32)nc(NC2CCOCC2)c1Br [Example 7, 5-bromo-N^4-(tetrahydro-2H-pyran-4-yl)-2-(1H-indazol-1-yl)pyrimidine-4,6-diamine]
IC50: 21.9 nM

Cn1cc(CNc2nc(-n3ncc4ccccc43)nc(N)c2Br)cn1 [Example 8, 5-bromo-2-(1H-indazol-1-yl)-N^4-[(1-methyl-1H-pyrazol-4-yl)methyl]pyrimidine-4,6-diamine]
IC50: 74.1 nM

Nc1nc(-n2ncc3ccccc32)nc(NCc2cncs2)c1Br [Example 9, 5-bromo-2-(1H-indazol-1-yl)-N^4-[(thiazol-5-yl)methyl]pyrimidine-4,6-diamine]
IC50: 1.6 nM

Cc1ncsc1CNc1nc(-n2ncc3ccccc32)nc(N)c1Br [Example 10, 5-bromo-2-(1H-indazol-1-yl)-N^4-[(4-methylthiazol-5-yl)methyl]pyrimidine-4,6-diamine]
IC50: 2.9 nM

COCCNc1nc(-n2ncc3ccccc32)nc(N)c1Br [Example 11, 5-bromo-2-(1H-indazol-1-yl)-N^4-(2-methoxyethyl)pyrimidine-4,6-diamine]
IC50: 25.9 nM

C#CCNc1nc(-n2cc(-c3ccccn3)cn2)nc(N)c1Br [Example 17, 5-bromo-N^4-(prop-2-ynyl)-2-[4-(pyridin-2-yl)-1H-pyrazol-1-yl]pyrimidine-4,6-diamine]
IC50: 18 nM

Nc1nc(-n2cc(-c3ccccn3)cn2)nc(NCc2cncs2)c1Br [Example 20, 5-bromo-2-[4-(pyridin-2-yl)-1H-pyrazol-1-yl]-N^4-[(thiazol-5-yl)methyl]pyrimidine-4,6-diamine]
IC50: 7 nM

Nc1nc(-n2cc(-c3ccc4ccccc4n3)cn2)nc(NC2CCOCC2)c1Br [Example 23, 5-bromo-N^4-(tetrahydro-2H-pyran-4-yl)-2-[4-(quinolin-2-yl)-1H-pyrazol-1-yl]pyrimidine-4,6-diamine]
IC50: 9.6 nM

Cc1ncsc1CNc1nc(-n2cc(-c3cnccn3)cn2)nc(N)c1Br [Example 29, 5-bromo-N^4-[(4-methylthiazol-5-yl)methyl]-2-[4-(pyrazin-2-yl)-1H-pyrazol-1-yl]pyrimidine-4,6-diamine]
IC50: 16.5 nM

C#CCNc1nc(-n2cc(-c3cnccn3)cn2)nc(N)c1Br [Example 30, 5-bromo-N^4-(prop-2-ynyl)-2-[4-(pyrazin-2-yl)-1H-pyrazol-1-yl]pyrimidine-4,6-diamine]
IC50: 4.5 nM

C#CCNc1nc(-n2ncc3ccncc32)nc(N)c1Br [Example 33, 5-bromo-N^4-(prop-2-ynyl)-2-(1H-pyrazolo[3,4-c]pyridin-1-yl)pyrimidine-4,6-diamine]
IC50: 3.2 nM

Cc1ncsc1CNc1nc(-n2ncc3ccncc32)nc(N)c1Br [Example 34, 5-bromo-N^4-[(4-methylthiazol-5-yl)methyl]-2-(1H-pyrazolo[3,4-c]pyridin-1-yl)pyrimidine-4,6-diamine]
IC50: 0.4 nM

Nc1nc(-n2ncc3ccncc32)nc(NCC2CC2)c1Br [Example 35, 5-bromo-N^4-(cyclopropylmethyl)-2-(1H-pyrazolo[3,4-c]pyridin-1-yl)pyrimidine-4,6-diamine]
IC50: 1.8 nM

Nc1nc(-n2ncc3ccncc32)nc(NCc2cncs2)c1Br [Example 36, 5-bromo-2-(1H-pyrazolo[3,4-c]pyridin-1-yl)-N^4-[(thiazol-5-yl)methyl]pyrimidine-4,6-diamine]
IC50: 0.06 nM

Cc1ncsc1CNc1nc(-n2ncc3cnccc32)nc(N)c1Br [Example 39, 5-bromo-N^4-[(4-methylthiazol-5-yl)methyl]-2-(1H-pyrazolo[4,3-c]pyridin-1-yl)pyrimidine-4,6-diamine]
IC50: 0.3 nM

Cc1ncsc1CNc1nc(-n2ncc3ncccc32)nc(N)c1Br [Example 41, 5-bromo-N^4-[(4-methylthiazol-5-yl)methyl]-2-(1H-pyrazolo[4,3-b]pyridin-1-yl)pyrimidine-4,6-diamine]
IC50: 0.6 nM

C#CCNc1nc(-n2cncn2)nc(N)c1Br [Example 42, 5-bromo-N^4-(prop-2-ynyl)-2-(1H-1,2,4-triazol-1-yl)pyrimidine-4,6-diamine]
IC50: 5.8 nM

Nc1nc(-n2cncn2)nc(NCc2cncs2)c1Br [Example 45, 5-bromo-N^4-[(thiazol-5-yl)methyl]-2-(1H-1,2,4-triazol-1-yl)pyrimidine-4,6-diamine]
IC50: 1.3 nM

Nc1nc(-n2cncn2)nc(NCC2CC2)c1Br [Example 46, 5-bromo-N^4-(cyclopropylmethyl)-2-(1H-1,2,4-triazol-1-yl)pyrimidine-4,6-diamine]
IC50: 3.4 nM

Nc1nc(-n2cc(C(=O)O)cn2)nc(NCC2CC2)c1Br [Example 51, 1-[4-amino-5-bromo-6-(cyclopropylmethylamino)pyrimidin-2-yl]-1H-pyrazole-4-carboxylic acid]
IC50: 29.9 nM

CCNc1nc(-n2cc(C(=O)N3CCOCC3)cn2)nc(N)c1Br [Example 53, {1-[4-amino-5-bromo-6-(ethylamino)pyrimidin-2-yl]-1H-pyrazole-4-yl}(morpholino)methanone]
IC50: 8.2 nM

Nc1nc(-n2cc(-c3ccccn3)cn2)nc(-n2cccn2)c1Br [Example 55, 5-bromo-6-(1H-pyrazol-1-yl)-2-[4-(pyridin-2-yl)-1H-pyrazol-1-yl]pyrimidin-4-amine]
IC50: 90.7 nM

CCNc1nc(-n2cc(-c3ccncn3)cn2)nc(N)c1Br [Example 61, 5-bromo-N^4-ethyl-2-[4-(pyrimidin-4-yl)-1H-pyrazol-1-yl]pyrimidine-4,6-diamine]
IC50: 37 nM

CCNc1nc(-n2ncc3ccccc32)nc(N)c1Cl [Example 64, 5-chloro-N^4-ethyl-2-(1H-indazol-1-yl)pyrimidine-4,6-diamine]
IC50: 12.4 nM

C#CCNc1nc(-n2ncc3ccccc32)nc(NCC)c1Br [Example 66, 5-bromo-N^4-ethyl-2-(1H-indazol-1-yl)-N^6-(prop-2-ynyl)pyrimidine-4,6-diamine]
IC50: 120 nM

CCNc1nc(-n2cc(-c3ccncn3)cn2)nc(NCc2nc3ccccc3[nH]2)c1Br [Example 77, N^4-[(1H-benzo[d]imidazol-2-yl)methyl]-5-bromo-N^6-ethyl-2-[4-(pyrimidin-4-yl)-1H-pyrazol-1-yl]pyrimidine-4,6-diamine]
IC50: 29.3 nM
